Experimental data taken from US20230201168A1, “NEW THERAPY FOR THE TREATMENT OF TUMORS” (Università degli Studi di Trento, priority 2020, published 2023).

Columns and labels:
VIPI cells = experiment: Viability assay (Hoechst 33342/PI), VIPI cells; assay type: cell-based; conditions: Homo sapiens, 48 h, mean±SD
Description: (§1) For the evaluation of the effect of Q/D, streptogramins A analogues (alone or in combination with Q) and TMZ on GSCs viability, cells were seeded into 96-well laminin-coated microtiter plates in 150 μL of media. The plates were incubated for 24 h prior to drug treatment. Serial drug dilutions were prepared in PBS to provide a total of seven drug concentrations plus control. 10 μL of these dilutions were added to each well, and the plates were incubated for additional 48 h. Each treatment was performed in technical quadruplicate. After the drug treatments, the cells were stained with Hoechst 33342 (1 μg/mL; Thermo Fisher Scientific, cat. H1399) and Propidium Iodide (PI, 1 μg/mL; Sigma Aldrich, cat. P4170) and incubated for 20 min shaking in the dark. The plates were then read using Operetta-High Content Imaging System (Perkin Elmer) and analyzed using the Harmony Software. The number of viable cells was calculated by subtracting PI positive cells from the total number of cells estimated by Hoechst 33342 staining and normalized on the non treated control.
(§2) Dose-response curves were plotted and growth inhibition 50 (GI50) values calculated using the GraphPad Prism software.

COMI cells = experiment: Viability assay (Hoechst 33342/PI), COMI cells; assay type: cell-based; conditions: Homo sapiens, 48 h, mean±SD
Description: as §1, §2

Cn1nnc2c(C(N)=O)ncn2c1=O [TMZ, temozolomide]
GI50 (VIPI cells): 338 ± 35.5 µM | GI50 (COMI cells): 96.5 ± 15.2 µM
